The source of these data is patent US12565501B2, “Muscarinic acetylcholine M1 receptor antagonists” (Contineum Therapeutics, Inc., priority 2019, dated 2026).

Where only a bound is given, the exact number is not on record here.

In the experiment the target is T1, human M1 receptor (Homo sapiens, UniProt P11229).
T1 sequence (P11229 1-460): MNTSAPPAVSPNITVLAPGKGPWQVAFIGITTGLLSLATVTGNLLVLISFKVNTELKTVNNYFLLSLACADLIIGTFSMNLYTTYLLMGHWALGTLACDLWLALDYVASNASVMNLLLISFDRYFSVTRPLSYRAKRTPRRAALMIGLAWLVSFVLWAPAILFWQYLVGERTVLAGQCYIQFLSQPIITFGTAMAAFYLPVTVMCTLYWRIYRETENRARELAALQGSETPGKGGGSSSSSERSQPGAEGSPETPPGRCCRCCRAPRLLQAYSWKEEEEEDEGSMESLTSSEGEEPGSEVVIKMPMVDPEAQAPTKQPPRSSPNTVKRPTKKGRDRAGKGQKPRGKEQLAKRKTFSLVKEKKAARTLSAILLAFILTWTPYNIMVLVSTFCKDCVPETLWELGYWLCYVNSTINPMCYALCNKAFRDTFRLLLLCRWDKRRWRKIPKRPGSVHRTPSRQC
Briefly: In vitro functional assay of muscarinic acetylcholine receptor activity (aequorin calcium flux, reversal of EC80 acetylcholine response). The experiment is classed as cell-based. Conditions: CHO-K1 cells stably expressing human M1 receptor with aequorin; acetylcholine at EC80; calcium flux (luminescence); read-out: M1 IC50. In outline:
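CHO-K1 cells expressing human M1 and aequorin, loaded with 5 μM coelenterazine for 4 h, preincubated with compound 30 min at room temperature, then challenged with EC80 acetylcholine.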
Background: Calcium assays in cells follow changes in intracellular calcium, usually with a dye or a luminescent sensor.
What is called IC50 is the concentration that inhibits the measured activity by half. Turning to `N#Cc1ccc(N2[C@@H]3CC[C@H]2CN(C(=O)CCNC2(c4ccc(F)cc4F)CC2)C3)nc1` [Example 26, 6-(3-(3-((1-(2,4-difluorophenyl)cyclopropyl)amino)propanoyl)-3,8-diazabicyclo[3.2.1]octan-8-yl)nicotinonitrile], the IC50 is 10 to 100 nM.

`N#Cc1ccc(N2[C@@H]3CC[C@H]2CN(C(=O)CCNC2(c4cccc(F)c4F)CC2)C3)nc1` [Example 32, 6-(3-(3-((1-(2,3-difluorophenyl)cyclopropyl)amino)propanoyl)-3,8-diazabicyclo[3.2.1]octan-8-yl)nicotinonitrile]: the IC50 was 10 to 100 nM.

Turning to `N#Cc1ccc(N2C3CCC2CN(C(=O)COC2(c4cccnn4)CCC2)C3)nc1` [Example 274, 6-(3-(2-(1-(pyridazin-3-yl)cyclobutoxy)acetyl)-3,8-diazabicyclo[3.2.1]octan-8-yl)nicotinonitrile], the IC50 is 10 to 100 nM.

Regarding `N#Cc1ccc(N2C[C@@H]3CC[C@H]2CN3C(=O)CNC2(c3ccc(F)cc3F)CC2)nc1` [Example 83, 6-((1S,4S)-5-((1-(2,4-difluorophenyl)cyclopropyl)glycyl)-2,5-diazabicyclo[2.2.2]octan-2-yl)nicotinonitrile], the IC50 was 1000 to 10000 nM.

As to `N#Cc1ccc(N2C3CCC2CN(C(=O)CCN2CC(c4ccc(F)cc4)C2)C3)nc1` [Example 24], the IC50 was greater than 1000 nM.

For the molecule `[2H]C([2H])([2H])Oc1cc(C(F)(F)CCC(=O)N2CC3CCC(C2)N3c2ccc(C#N)cn2)ccn1` [Example 165, 6-(3-(4,4-difluoro-4-(2-(methoxy-d3)pyridin-4-yl)butanoyl)-3,8-diazabicyclo[3.2.1]octan-8-yl)nicotinonitrile], the IC50 lay within 10 to 100 nM.

For `CC(OCCC(=O)N1CC2CCC(C1)N2c1ccc(C#N)cn1)c1cccc2nccnc12` (racemic) [Example 312, 6-(3-(3-(1-(quinoxalin-5-yl)ethoxy)propanoyl)-3,8-diazabicyclo[3.2.1]octan-8-yl)nicotinonitrile], the concentration for half-maximal inhibition (IC50) is less than 10 nM.

`CC(c1ccc(F)cc1)S(=O)(=O)CCC(=O)N1CC2CCC(C1)N2c1ccc(C#N)cn1` (racemic) [Example 175, 6-(3-(3-((1-(4-fluorophenyl)ethyl)sulfonyl)propanoyl)-3,8-diazabicyclo[3.2.1]octan-8-yl) nicotinonitrile]: the IC50 is greater than 1000 nM.

Consider `COc1cc([C@H](C)NCCC(=O)N2C[C@H]3CC[C@@H](C2)N3c2ccc(C#N)cn2)ccn1` [Example 22, 6-(3-(3-(((S)-1-(2-methoxypyridin-4-yl)ethyl)amino)propanoyl)-3,8-diazabicyclo[3.2.1]octan-8-yl)nicotinonitrile], for which the IC50 lay in the range of 1000 to 10000 nM.

Consider `Cc1ccc(N2[C@@H]3CC[C@H]2CN(C(=O)CCNC2(c4ccc(F)c(F)c4)CC2)C3)nn1` [Example 47, 3-((1-(3,4-difluorophenyl)cyclopropyl)amino)-1-(8-(6-methylpyridazin-3-yl)-3,8-diazabicyclo[3.2.1]octan-3-yl)propan-1-one], for which the IC50 was in the range of 10 to 100 nM.

As to `N#Cc1ccc(N2C3CCC2CN(C(=O)COC(c2ccc(F)c(F)c2)C2CC2)C3)nc1` (racemic) [Example 194, 6-(3-(2-(cyclopropyl(3,4-difluorophenyl)methoxy)acetyl)-3,8-diazabicyclo[3.2.1]octan-8-yl)nicotinonitrile], the IC50 fell in the range of 100 to 1000 nM.

Take `N#Cc1ccc(N2C3CCC2CN(C(=O)COC2(c4cccc(F)c4)CC2)C3)nc1` [Example 206, 6-(3-(2-(1-(3-fluorophenyl)cyclopropoxy)acetyl)-3,8-diazabicyclo[3.2.1]octan-8-yl)nicotinonitrile]: the IC50 fell in the range of 100 to 1000 nM.

With `N#Cc1ccc(N2C3CCC2CN(C(=O)COC2(c4cccc5nccnc45)CC2)C3)nc1` [Example 231, 6-(3-(2-(1-(quinoxalin-5-yl)cyclopropoxy)acetyl)-3,8-diazabicyclo[3.2.1]octan-8-yl)nicotinonitrile], the IC50 was 10 to 100 nM.

As to `N#Cc1ccc(N2C3CCC2CN(C(=O)CNC2(c4ccc(F)c(F)c4)CC2)C3)nc1` [Example 60, 6-(3-((1-(3,4-difluorophenyl)cyclopropyl)glycyl)-3,8-diazabicyclo[3.2.1]octan-8-yl)nicotinonitrile], the IC50 lay in the range of 10 to 100 nM.

In the case of `N#Cc1ccc(N2[C@@H]3CC[C@H]2CN(C(=O)CCNC2(c4ccc(F)c(Br)c4)CC2)C3)nc1` [Example 11, 6-(3-(3-((1-(3-bromo-4-fluorophenyl)cyclopropyl)amino)propanoyl)-3,8-diazabicyclo[3.2.1]octan-8-yl)nicotinonitrile], the IC50 was less than 10 nM.

`COc1ccc(F)c(C2(NCC(=O)N3CC4CCC(C3)N4c3ccc(C#N)cn3)CCC2)c1F` [Example 117, 6-(3-((1-(2,6-difluoro-3-methoxyphenyl)cyclobutyl)glycyl)-3,8-diazabicyclo[3.2.1]octan-8-yl)nicotinonitrile]: the IC50 lay within 100 to 1000 nM.

Take `N#Cc1ccc(N2C3CCC2CN(C(=O)CNC2(c4ccccn4)CC2)C3)nc1` [Example 63, 6-(3-((1-(pyridin-2-yl)cyclopropyl)glycyl)-3,8-diazabicyclo[3.2.1]octan-8-yl)nicotinonitrile]: the IC50 lay in the range of 1000 to 10000 nM.

In the case of `COc1cccc2c1CCN(CC(=O)N1CC3CCC(C1)N3c1ccc(C#N)cn1)C2C` (racemic) [Example 121, 6-(3-(2-(5-methoxy-1-methyl-3,4-dihydroisoquinolin-2(1H)-yl)acetyl)-3,8-diazabicyclo[3.2.1]octan-8-yl)nicotinonitrile], the IC50 lay in the range of 100 to 1000 nM.

On to `N#Cc1ccc(N2[C@@H]3CC[C@H]2CN(C(=O)CCNC2(c4cc(Cl)cc(Br)c4)CC2)C3)nc1` [Example 12, 6-(3-(3-((1-(3-bromo-5-chlorophenyl)cyclopropyl)amino)propanoyl)-3,8-diazabicyclo[3.2.1]octan-8-yl)nicotinonitrile], for which the IC50 lay within 100 to 1000 nM.

On to `COc1ncccc1C(F)(F)CCC(=O)N1CC2CCC(C1)N2c1ccc(C#N)cn1` [Example 159, 6-(3-(4,4-difluoro-4-(2-methoxypyridin-3-yl)butanoyl)-3,8-diazabicyclo[3.2.1]octan-8-yl)nicotinonitrile], for which the IC50 is less than 10 nM.

For `C[C@H](NCCC(=O)N1C[C@H]2CC[C@@H](C1)N2c1ccc(C#N)cn1)c1ccc(F)cc1` [Example 6, 6-(3-(3-(((S)-1-(4-fluorophenyl)ethyl)amino)propanoyl)-3,8-diazabicyclo[3.2.1]octan-8-yl)nicotinonitrile], the IC50 is 1000 to 10000 nM.

`N#Cc1ccc(N2C3CCC2CN(C(=O)COC2(c4cccc(C#N)c4)CC2)C3)nc1` [Example 295, 6-(3-(2-(1-(3-cyanophenyl)cyclopropoxy)acetyl)-3,8-diazabicyclo[3.2.1]octan-8-yl)nicotinonitrile]: the IC50 lay within 100 to 1000 nM.

In the case of `COc1cc(C2(NCC(=O)N3CC4CCC(C3)N4c3ccc(C#N)cn3)CC2)ccn1` [Example 73, 6-(3-((1-(2-methoxypyridin-4-yl)cyclopropyl)glycyl)-3,8-diazabicyclo[3.2.1]octan-8-yl)nicotinonitrile], the half-inhibitory concentration (IC50) lay within 10 to 100 nM.

For the molecule `COc1cc(F)ccc1C(C)NCC(=O)N1CC2CCC(C1)N2c1ccc(C#N)cn1` (racemic) [Example 56, 6-(3-((1-(4-fluoro-2-methoxyphenyl)ethyl)glycyl)-3,8-diazabicyclo[3.2.1]octan-8-yl)nicotinonitrile], the IC50 is less than 10 nM.

`COc1cc(C2(OCC(=O)N3CC4CCC(C3)N4c3ccc(C#N)cn3)CC2)ccc1F` [Example 224, 6-(3-(2-(1-(4-fluoro-3-methoxyphenyl)cyclopropoxy)acetyl)-3,8-diazabicyclo[3.2.1]octan-8-yl)nicotinonitrile]: the IC50 fell in the range of 10 to 100 nM.

On to `N#Cc1ccc(N2C3CCC2CN(C(=O)CNC2(c4cccc(C#N)c4)CC2)C3)nc1` [Example 62, 6-(3-((1-(3-cyanophenyl)cyclopropyl)glycyl)-3,8-diazabicyclo[3.2.1]octan-8-yl)nicotinonitrile], for which the IC50 is 100 to 1000 nM.

Consider `COc1cncc(C2(OCC(=O)N3CC4CCC(C3)N4c3ccc(C#N)cn3)CCC2)c1` [Example 233, 6-(3-(2-(1-(5-methoxypyridin-3-yl)cyclobutoxy)acetyl)-3,8-diazabicyclo[3.2.1]octan-8-yl)nicotinonitrile], for which the IC50 is less than 10 nM.

Consider `N#Cc1ccc(N2C3CCC2CN(C(=O)COCC2(c4ccccc4)CC2)C3)nc1` [Example 187, 6-(3-(2-((1-phenylcyclopropyl)methoxy)acetyl)-3,8-diazabicyclo[3.2.1]octan-8-yl)nicotinonitrile], for which the 50% inhibitory concentration (IC50) is 100 to 1000 nM.

Turning to `N#Cc1ccc(N2[C@@H]3CC[C@H]2CN(C(=O)CCNC2(c4cccnc4)CC2)C3)nc1` [Example 19, 6-(3-(3-((1-(pyridin-3-yl)cyclopropyl)amino)propanoyl)-3,8-diazabicyclo[3.2.1]octan-8-yl)nicotinonitrile], the IC50 lay within 100 to 1000 nM.

As for `N#Cc1ccc(N2C3CCC2CN(C(=O)COC2(c4cccc(C#N)c4F)CC2)C3)nc1` [Example 290, 6-(3-(2-(1-(3-cyano-2-fluorophenyl)cyclopropoxy)acetyl)-3,8-diazabicyclo[3.2.1]octan-8-yl)nicotinonitrile], the IC50 is 1000 to 10000 nM.

In the case of `N#Cc1ccc(N2C3CCC2CN(C(=O)CCOC2(c4ccc(F)cc4)CCC2)C3)nc1` [Example 310, 6-(3-(3-(1-(4-fluorophenyl)cyclobutoxy)propanoyl)-3,8-diazabicyclo[3.2.1]octan-8-yl)nicotinonitrile], the IC50 is less than 10 nM.
